Reference: BindingDB's records for patent US20240287037 (Plexium, 2024)

Target: Protein cereblon (Homo sapiens, UniProt Q96SW2)
Assay: Bioluminescence Resonance Energy Transfer (BRET)
Protocol: 2 uL of 10 uM CRBN tracer (diluted 1:5 in Tracer Dilution Buffer) was added to each well. Plates were centrifuged at 320 g for 1 min at room temperature. […] Plates were shaken for 2 minutes on a microplate shaker to mix compounds. Plates were centrifuged at 320 g for 1 min at room temperature, and subsequently incubated for 2 hours at 37 C.After incubation, plates were allowed to cool to room temperature for 15 minutes. […] Plates were read on a CLARIOstar microplate reader (BMG LabTech), measuring at 450 nm (donor emission) and 610 nm (acceptor emission).

Sequence of Protein cereblon (Q96SW2 whole entry): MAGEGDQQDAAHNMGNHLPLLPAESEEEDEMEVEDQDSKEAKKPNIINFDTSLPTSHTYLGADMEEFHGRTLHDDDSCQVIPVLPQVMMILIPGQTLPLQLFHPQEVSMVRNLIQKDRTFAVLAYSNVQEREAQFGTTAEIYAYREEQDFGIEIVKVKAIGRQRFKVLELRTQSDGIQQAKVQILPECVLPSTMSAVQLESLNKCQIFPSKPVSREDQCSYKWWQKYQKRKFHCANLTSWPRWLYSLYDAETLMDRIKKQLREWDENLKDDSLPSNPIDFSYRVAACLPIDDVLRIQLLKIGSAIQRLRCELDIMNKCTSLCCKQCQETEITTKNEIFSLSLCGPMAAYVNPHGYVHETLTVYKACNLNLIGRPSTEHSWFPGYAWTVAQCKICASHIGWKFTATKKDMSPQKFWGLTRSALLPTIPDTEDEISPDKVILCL

- EC50: 28 nM
SMILES: N#CC1(C2CN([C@H]3CCCC[C@@H]3Oc3ccc4c(c3)CN(C3CCC(=O)NC3=O)C4=O)C2)CCC1 (stereo partly specified) [US20240287037, Example 23]
